Results: paper PMC4277498 (Cell reports, 2014)

Legend:
[1] = test system: gpr126 mutant zebrafish; conditions: forskolin-induced cAMP elevation, ref Monk et al., 2009; cited from earlier work
[2] = test system: β-adrenergic receptor endogenously expressed in COS-7 cells; conditions: COS-7 with endogenous β-adrenergic receptor

C=C[C@@]1(C)CC(=O)[C@]2(O)[C@@]3(C)[C@@H](O)CCC(C)(C)[C@@H]3[C@H](O)[C@H](OC(C)=O)[C@@]2(C)O1 [forskolin]
reversal of peripheral myelination phenotype [1]: reversible

CC(C)NCC(O)c1ccc(O)c(O)c1 (centres unmarked) [isoprenaline]
dynamic mass redistribution response (EPIC) [2]: concentration-dependent cellular responses
